In patent US20250319012A1, “METHOD FOR PREPARING LOW-MOLECULAR-WEIGHT SILK SERICIN, AND COSMETIC COMPOSITION COMPRISING SERICIN PREPARED THEREBY” (HEWON CO., LTD., priority 2021, published 2025):
Values belong to the molecule of their own block, whether it stands above or below them.

Test system: soluble sericin
Assay: Hydrolytic activity of enzymes on soluble sericin (absorbance of supernatant at 271 nm)
Type: biochemical
Conditions: 10% enzyme, pH 7, 8 hours, 30-70° C. tested
Experimental: To confirm the degree of hydrolysis of sericin according to the kinds of enzyme, a total of 7 kinds of endopeptidase type alcalase, esperase, protamax, bromelain, papain, neutrase and exopeptidase type flavourzyme were prepared. At this time, sericin extracted from the sericin prepared in Preparation Example 1 at 120° C. for 30 minutes was used as a substrate sample, and after centrifugation, insoluble sericin was removed and soluble sericin was used. […]
The reactants after hydrolysis were subjected to enzyme inactivation at 85° C. for 10 min, and then the supernatant was collected by centrifugation (10,000 rpm, 10 min). After diluting the supernatant 20 times with D/W, the absorbance value measured at 271 nm, which is the maximum absorption wavelength of sericin, with a spectrophotometer (UV/VIS Nano Spectrophotometer, Nabi, Microdigital) was used as a measure of solubility.
In order to minimize the change in pH during the enzyme reaction of Preparation Example 2, the pH was adjusted using 1 M acetic acid and an average of 26.5% ammonia hydroxide. 1 mg of soluble sericin was treated with 0.1 mg of an enzyme (10% of sericin concentration), […], and then the supernatant was collected to measure the absorbance with pH change. […]

- temperature at which high hydrolytic activity was shown: 50 °C
Molecule: bromelain

- temperature at which high hydrolytic activity was shown: 60 °C
B1: papain: endopeptidase type enzyme (protein, UniProt P00784 134-345, looked up)
Papain: IPEYVDWRQKGAVTPVKNQGSCGSCWAFSAVVTIEGIIKIRTGNLNEYSEQELLDCDRRSYGCNGGYPWSALQLVAQYGIHYRNTYPYEGVQRYCRSREKGPYAAKTDGVRQVQPYNEGALLYSIANQPVSVVLEAAGKDFQLYRGGIFVGPCGNKVDHAVAAVGYGPNYILIKNSWGTGWGENGYIRIKRGTGNSYGVCGLYTSSFYPVKN
